Experimental data from ChEMBL document CHEMBL3632572, “Adenosine/guanosine preferring nucleoside ribohydrolase is a distinct, druggable antitrichomonal target” (Bioorg Med Chem Lett, 2015).
Active and inactive are the calls of the source. The rule behind the calls is not given here.

Legend:
Trichomonas vaginalis = assay: Inhibition of Trichomonas vaginalis uridine ribohydrolase after 40 mins
[1] = Inhibition of Trichomonas vaginalis adenosine-guanosine preferring ribohydrolase after 40 mins
[2] = Inhibition of Trichomonas vaginalis adenosine-guanosine preferring ribohydrolase after 40 mins in presence of 0.01% triton X-100

SMILES	inhibition (Trichomonas vaginalis)	IC50 [1] [µM]	IC50 [2] [µM]
O=C1c2c(O)cc(O)cc2OC(c2ccc(O)c(O)c2)C1O (racemic) [TAXIFOLIN]	inactive	5.9	12.5
OC[C@H]1O[C@@H](n2cnc3c(NC4CCCC4)nc(Cl)nc32)[C@H](O)[C@@H]1O	inactive	9.8	11.7
O=c1c(O[C@@H]2O[C@H](CO)[C@@H](O)[C@H](O)[C@H]2O)c(-c2ccc(O)c(O)c2)oc2cc(O)cc(O)c12 [ISOQUERCETIN]	inactive	0.3	0.9
C[C@@H]1O[C@@H](OC[C@H]2O[C@@H](Oc3c(-c4ccc(O)c(O)c4)oc4cc(O)cc(O)c4c3=O)[C@H](O)[C@@H](O)[C@@H]2O)[C@H](O)[C@H](O)[C@H]1O [RUTIN]	inactive	10.2	17.3
Cc1ccc(NC(=O)c2ccc(CN3CCN(C)CC3)cc2)cc1Nc1nccc(-c2cccnc2)n1 [IMATINIB]	inactive	1.8	3.5
O=c1c(O[C@@H]2O[C@H](CO)[C@H](O)[C@H](O)[C@H]2O)c(-c2ccc(O)c(O)c2)oc2cc(O)cc(O)c12 [HYPEROSIDE]	inactive	2.2	4
COc1ccccc1OCCNCC(O)COc1cccc2[nH]c3ccccc3c12 (stereo not drawn) [CARVEDILOL]	inactive	10.4	–
O=C1c2c(O)cc(O)cc2O[C@H](c2ccc(O)c(O)c2)[C@H]1O [(+)-TAXIFOLIN]	inactive	9.3	34.2
